# Tests used:
# [1] = tested on: chondrocyte; conditions: Okazaki M, Osteoarthritis Cartilage 2003; cited from earlier work
# [2] = tested on: chondrocytes; assay: Micromass culture of chondrocytes, herbal preparations in combination with glucosamine; format: cell-based, human
# Method: Expression was measured on micromass culture after cells grown for two weeks. Induction medium alone (left); with 0.1 mM glucosamine (middle); with 1 mM glucosamine (right). […] All the preparations were at 0.01 mg/ml. Row A, B: alkaline phosphatase (ALP) stained by Naphthol AS-MX phosphate/Fast red; row C, D: collagen stained by Sirius red; row E, F: glycosaminoglycans stained by Safranin O.
# (§1) Human articular cartilage was obtained from patients who received total joint replacement with consent. The cartilage was digested with 1 mg/ml of Class 2 and Class 4 bacterial collagenase (Worthington Chemical, Freehold, N.J.) in DMEM containing 10% fetal calf serum (FCS) and 25 ug/ml Gentamicin (Gibco, Grand Island, N.Y.) (C-DMEM) at 37° C. overnight. The primary cells were plated at high density in 10 mm culture dish (Nunc, Roskilde, Danmark) in C-DMEM and cultured under humidified atmosphere containing 5% CO2 at 37° C.
# (§2) Ten ul of 1×10^7 cells in C-DMEM was seeded into the center of each well of 48 multiwell culture dish (Nunc, Roskilde, Danmark). Two hours later, 250 ul of F12/DMEM containing 5% FCS, 6.25 ug/ml bovine insulin, 25 ug/ml ascorbic acid and 100 nM Dexamethasone (induction medium) with various concentrations of herbal combinations or glucosamine (Sigma) was added. The media were changed twice a week for two weeks. At the end of the incubation, the media were changed with fresh DMEM. Twenty-four hours later, the media were collected for MMP zymography study and cells were fixed and stained for alkaline phosphatase (ALP), collagen or glycosaminoglycan using Naphthol AS-MX phosphate/Fast red, Sirius red, or Safranin O (Sigma), respectively.
# [3] = tested on: MMP-2; assay: MMP-2 activities of chondrocyte culture supernatants by zymography; format: cell-based, human
# Method: Confluent cells were treated with various herbal combinations in F12/DMEM containing 5% FCS, 6.25 ug/ml bovine insulin, 25 ug/ml ascorbic acid and 100 nM Dexamethasone for 2 weeks with medium changed twice a week. At the end of each treatment, cells were washed with PBS and incubated in DMEM overnight. Cells were then exposed to fluid-induced shear stress by a custom-made cone viscometer at the rate of 100 rpm for 2 hours. The shear stress induced at this speed was 0.82 Pa (8.2 dyn/cm^2). Aliquots of culture medium were collected at designated time for nitric oxide measurement and MMP zymography analysis. Another set of cells was treated similarly without shearing as the control.
# Equal amount of protein of each culture medium was mixed with equal volume of 2× non-reducing SDS sample buffer, and incubated at room temperature for two hours for sample to denature. The samples were loaded into each well of a 10% SDS polyacrylamide gel containing 1 mg/ml of bovine gelatin (Sigma), and run at 20 mA in ice bath by a BioRad Mini Protean gel apparatus. After dye front reached the bottom of the gel, the gel was washed three times, 15 minutes each, with 2.5% Triton X-100. Then, the gel was renatured in developing buffer (50 mM Tris-HCl, pH7.6, 10 mM CaCl2, 50 mM NaCl, 0.05% Brij35) at 37° C. for 48 hours. […]
# [4] = tested on: TIMP; assay: TIMP activities of chondrocyte culture supernatants by reverse zymography; format: cell-based, human; conditions: non-sheared
# Method: Confluent cells were treated with various herbal combinations in F12/DMEM containing 5% FCS, 6.25 ug/ml bovine insulin, 25 ug/ml ascorbic acid and 100 nM Dexamethasone for 2 weeks with medium changed twice a week. At the end of each treatment, cells were washed with PBS and incubated in DMEM overnight. Cells were then exposed to fluid-induced shear stress by a custom-made cone viscometer at the rate of 100 rpm for 2 hours. The shear stress induced at this speed was 0.82 Pa (8.2 dyn/cm^2). […] Another set of cells was treated similarly without shearing as the control.
# Equal amount of protein of each culture medium was mixed with equal volume of 2× non-reducing SDS sample buffer, and incubated at room temperature for two hours for sample to denature. The samples were loaded into each well of a 10% SDS polyacrylamide gel containing 1 mg/ml of bovine gelatin (Sigma) and 1 ml serum free 24 hour's culture supernatant of human foreskin dermal fibroblast which expressed MMP, and run at 20 mA in ice bath by a BioRad Mini Protean gel apparatus. After dye front reached the bottom of the gel, the gel was washed three times, 15 minutes each, with 2.5% Triton X-100. Then, the gel was renatured in developing buffer (50 mM Tris-HCl, pH7.6, 10 mM CaCl2, 50 mM NaCl, 0.05% Brij35) at 37° C. for 48 hours. […]
# [5] = tested on: chondrocytes; assay: Micromass culture of chondrocytes, staining for ALP, collagen and GAGs; format: cell-based, human; conditions: 1 mM, two weeks
# Method: Cells were grown for two weeks before measuring. […] Row A, B: alkaline phosphatase (ALP) stained by Naphthol AS-MX phosphate/Fast red; row C, D: collagen stained by Sirius red; row E, F: glycosaminoglycan stained by Safranin O.
# as §1, §2
# [6] = tested on: chondrocytes; assay: Gene expressions (RT-PCR) of shear-stressed vs. non-shear-stressed chondrocytes; format: cell-based, human; conditions: for Col I expression: glucosamine 1 mM
# Method: Confluent cells were treated with various herbal combinations in F12/DMEM containing 5% FCS, 6.25 ug/ml bovine insulin, 25 ug/ml ascorbic acid and 100 nM Dexamethasone for 2 weeks with medium changed twice a week. At the end of each treatment, cells were washed with PBS and incubated in DMEM overnight. Cells were then exposed to fluid-induced shear stress by a custom-made cone viscometer at the rate of 100 rpm for 2 hours. The shear stress induced at this speed was 0.82 Pa (8.2 dyn/cm^2). […] Another set of cells was treated similarly without shearing as the control. The cells were washed with PBS, and RNA was extracted by Tri-Reagent (Sigma).
# The RNA of cells was extracted with Tri-Reagent (Sigma). 800 ng of total RNA was reverse transcribed by Omniscript reverse transcriptase (Qiagen, Valencia, Calif.) in buffer containing 1 uM random primer, 0.5 mM each of dNTP, and 10 units of ribonuclease inhibitor. Reverse transcription was carried out at 37° C. for one hour by a programmable thermal controller (PTC-100, MJ Research, Inc., Watertown, Mass.). Reaction was terminated by raising the temperature to 93° C. for five minutes.
# PCR was performed in a thermal controller (PTC-100, MJ Research, Inc., Watertown, Mass.) with master mix (HotStarTaq DNA polymerase, Qiagen) at initial denaturation at 95° C. for 15 minutes, followed by 25 cycles of 94° C. for 1 minute, 58° C. for 40 seconds, and 72° C. for 40 seconds. The final cycle extended 72° C. for 10 minutes. The PCR products accompanied by 100 bp ET marker were separated by 1.2% agarose gel, stained with ethidium bromide and visualized under UV light. A Polaroid picture was taken by Foto/Phoresis UV documentation system (Fotodyne Inc.). Beta-actin expression under the same experimental conditions was used as a reference to normalize the expressions.
# [7] = tested on: chondrocytes; assay: Nitric oxide determination (Griess) after fluid induced shear stress; format: cell-based, human; conditions: for NO Concentration: pretreated two weeks, 0.01 mg/ml or glucosamine 1 mM
# [8] = tested on: bone marrow mesenchymal stem cells; assay: Micromass culture of bone marrow mesenchymal stem cells, staining for ALP, collagen and GAGs; format: cell-based, human; conditions: 1 mM
# Method: Herbal preparations were treated to cells grown in the induction medium in micromass culture for two weeks.
# Human bone marrow mesenchymal stem cells were obtained from patients receiving total joint replacement with consent. The cells were cultured in DMEM containing 10% fetal calf serum (FCS), and 25 ug/ml Gentamicin (Gibco, Grand Island, N.Y.) (C-DMEM) at 37° C. under humidified atmosphere containing 5% CO2.
# as §2
# [9] = Free radical scavenger, SOD mimetic activity (xanthine/xanthine oxidase/NBT); format: biochemical; conditions: reference agents; read-out: Concentration at 50 % Inhibition
# Method: Conversion of xanthine to uric acid+O^−+NBT to formazan was then determined by measurement of absorbance at 595 nm and percent inhibition by superoxide dismutase or test compound was calculated.
# [10] = target: T1, MMP-3 (stromelysin-1, human recombinant catalytic domain) (Homo sapiens, UniProt P08254); assay: MMP-3 enzymatic assay; format: biochemical; conditions: reference agents; read-out: Concentration at 50 % Inhibition
# T1 construct: MMP-3 (stromelysin-1, human recombinant catalytic domain from Calbiochem Cat. 444217); purchased Calbiochem 444217
# Method: MMP-3 (stromelysin-1, human recombinant catalytic domain from Calbiochem Cat. 444217) was activated by p-aminophenylmercuric acetate for 60 minutes at 37° C. […] Enzyme activity was determined spectrofluorometrically by measuring the formation of fluorescent (7-methoxycoumarin-4-yl)acetyl-Pro-Leu-Gly.
# [11] = target: T2, MMP-13 proenzyme (human recombinant) (Homo sapiens, UniProt P45452); assay: MMP-13 enzymatic assay; format: biochemical; conditions: reference agents; read-out: Concentration at 50 % Inhibition
# T2 construct: purchased Calbiochem 444248; host or cells: Sf9 cell
# Method: MMP-13 proenzyme (human recombinant, expressed in Sf9 cell, Calbiochem Cat. 444248) was activated by p-aminophenylmercuric acetate for 60 minutes at 37° C. […] Enzyme activity was determined spectrofluorometrically by measuring the formation of fluorescent (7-methoxycoumarin-4-yl)acetyl-Pro-Leu-Gly.
# [12] = target: T3, MMP-8 (collagenase-2, stimulated human neutrophils) (Homo sapiens, UniProt P22894); assay: MMP-8 enzymatic assay; format: biochemical; conditions: reference agents; read-out: Concentration at 50 % Inhibition
# T3 construct: purchased Calbiochem 444229; host or cells: natural protein from stimulated human neutrophils
# Method: MMP-8 (collagenase-2, stimulated human neutrophils, Calbiochem Cat. 444229) was activated by p-aminophenylmercuric acetate for 60 minutes at 37° C. […] Enzyme activity was determined spectrofluorometrically by measuring the formation of fluorescent (7-methoxycoumarin-4-yl) acetyl-Pro-Leu-Gly.
# T1 sequence (P08254 100-272 limits assumed): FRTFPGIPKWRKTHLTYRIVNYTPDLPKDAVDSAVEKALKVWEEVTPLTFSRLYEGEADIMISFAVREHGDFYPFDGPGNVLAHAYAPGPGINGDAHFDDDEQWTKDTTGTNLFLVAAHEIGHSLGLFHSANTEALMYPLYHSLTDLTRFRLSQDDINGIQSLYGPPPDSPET
# T3 sequence (P22894 101-467): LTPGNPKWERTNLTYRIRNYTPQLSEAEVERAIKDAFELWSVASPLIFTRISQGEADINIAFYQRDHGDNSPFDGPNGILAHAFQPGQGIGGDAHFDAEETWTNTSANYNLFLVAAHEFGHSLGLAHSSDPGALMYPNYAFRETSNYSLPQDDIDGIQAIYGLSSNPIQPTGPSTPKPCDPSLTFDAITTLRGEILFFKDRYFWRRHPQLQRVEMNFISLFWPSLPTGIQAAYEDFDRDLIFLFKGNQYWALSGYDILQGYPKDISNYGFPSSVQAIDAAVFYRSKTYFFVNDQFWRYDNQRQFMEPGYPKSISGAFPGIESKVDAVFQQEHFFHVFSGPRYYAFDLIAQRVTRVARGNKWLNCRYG
compound,measurement,setting,value
CCOC(CN1C(=O)[C@](CC(=O)Nc2ccc(C)cc2)(NC(=O)Nc2ccc(C)cc2)c2ccccc21)OCC [AG-041R],ALP activity,[1],suppressed ALP activity
same,"expression of type II collagen, aggrecan and BMP-2 genes",[1],up-regulated
same,proteoglycan synthesis,[1],accelerated proteoglycan synthesis
N[C@H]1C(O)O[C@H](CO)[C@@H](O)[C@@H]1O (some centres unmarked) [glucosamine],baseline GAG synthesis,[2]; 0.1 mM glucosamine,slightly increased
same,baseline collagen synthesis,[2]; 0.1 mM glucosamine,slightly increased
same,effect of glucosamine on the activity of herbal preparations,"[2]; glucosamine 0.1 or 1 mM, preparations 0.01 mg/ml",did not affect the activity of herbal preparations
same,"active and latent forms of MMP-2 (68 K, 72 K bands)",[3]; non-sheared,showed same profiles as controls
same,"active and latent forms of MMP-2 (68 K, 72 K bands)",[3]; sheared,showed same profiles as controls
same,"TIMP (41 K band, >118 K band)",[4],decrease of TIMP
same,ALP,[5]; Naphthol AS-MX phosphate/Fast red,did not show effects
same,GAGs,[5]; Safranin O,did not show effects
same,Collagen,[5]; Sirius red,did not show effects
same,aggrecanase expression,[6]; non-shear-stressed,inhibited aggrecanase expression
same,expression of aggrecan,[6]; non-shear-stressed,inhibited the expression of aggrecan significantly
same,BMP-2 expression,[6]; non-sheared,inhibited its expression completely
same,Col I expression,[6]; non-sheared,inhibited Col I expression significantly
same,BMP-2 expression,[6]; shear-stressed,showed less activity
same,aggrecanase expression,[6]; shear-stressed,slight increase in aggrecanase expression
same,expression of aggrecan,[6]; shear-stressed,slightly increased aggrecan expression
same,MMP-2 expression,[6]; shear-stressed and non-shear-stressed,not to be affected
same,Col I expression,[6]; sheared,no effect
same,NO Concentration,"[7]; Non-sheared, 0 h",0.40 µM
same,NO Concentration,"[7]; Non-sheared, 2 h",0.00 µM
same,NO Concentration,"[7]; Non-sheared, 4 h",0.00 µM
same,NO Concentration,"[7]; Non-sheared, 7 h",0.00 µM
same,NO Concentration,"[7]; Non-sheared, 24 h",0.00 µM
same,NO Concentration,"[7]; Non-sheared, (2 h)",0.17 µM
same,NO Concentration,"[7]; Sheared, 0 h",4.58 µM
same,NO Concentration,"[7]; Sheared, 2 h",4.75 µM
same,NO Concentration,"[7]; Sheared, 4 h",4.58 µM
same,NO Concentration,"[7]; Sheared, 7 h",4.42 µM
same,NO Concentration,"[7]; Sheared, 24 h",4.72 µM
same,NO Concentration,"[7]; Sheared, (2 h)",0.85 µM
same,inhibition of NO production,"[7]; fluid induced shear stress 100 rpm (0.82 Pa), two hours",55%
same,ALP,[8],did not show significant effects
same,GAGs synthesis,[8],did not show significant effects
same,collagen synthesis,[8],did not show significant effects
O=C(O[C@@H]1Cc2c(O)cc(O)cc2O[C@@H]1c1ccc(O)c(O)c1)c1cc(O)c(O)c(O)c1 [(−)-Epicatechin gallate],IC50,[9],6100 nM
"TIMP-1: tissue inhibitor of matrix metalloproteinase, comparison agent in the MMP assays",IC50,[10],7.6 nM
same,IC50,[11],6.8 nM
same,IC50,[12],3.9 nM

# From patent publication US20060216363A1, “Novel herbal composition” (priority 2005, published 2006)
